Test results taken from ChEMBL document CHEMBL4308841, “Synthesis, in vitro antiproliferative activity, and kinase inhibitory effects of pyrazole-containing diarylureas and diarylamides” (Eur J Med Chem, 2018).

Tests used:
RXF 393 [1] = test: Growth inhibition of human RXF393 cells incubated for 48 hrs by sulforhodamine B assay; type: functional, cell-based; settings: RXF 393, 48 h
ACHN = test: Growth inhibition of human ACHN cells assessed as cell growth at 100 uM incubated for 48 hrs by sulforhodamine B assay relative to control; type: functional; settings: read-out: Activity
HCC 2998 = test: Growth inhibition of human HCC2998 cells incubated for 48 hrs by sulforhodamine B assay; type: functional, cell-based; settings: HCC 2998, 48 h
NCI-H322M = test: Growth inhibition of human NCI-H322M cells assessed as cell growth at 0.1 uM incubated for 48 hrs by sulforhodamine B assay relative to control; type: functional; settings: read-out: Activity
HL-60(TB) = test: Growth inhibition of human HL-60(TB) cells incubated for 48 hrs by sulforhodamine B assay; type: functional, cell-based; settings: HL-60, 48 h
RPMI-8226 = test: Growth inhibition of human RPMI8226 cells assessed as cell growth at 0.1 uM incubated for 48 hrs by sulforhodamine B assay relative to control; type: functional; settings: RPMI-8226, 48 h, read-out: Activity
Hs-578T = test: Growth inhibition of human Hs578T cells assessed as cell growth at 1 uM incubated for 48 hrs by sulforhodamine B assay relative to control; type: functional; settings: read-out: Activity
U-251 = test: Growth inhibition of human U251 cells assessed as cell growth at 100 uM incubated for 48 hrs by sulforhodamine B assay relative to control; type: functional; settings: U-251, 48 h, read-out: Activity
SK-MEL-2 = test: Growth inhibition of human SK-MEL-2 cells assessed as cell growth at 0.1 uM incubated for 48 hrs by sulforhodamine B assay relative to control; type: functional; settings: SK-MEL-2, 48 h, read-out: Activity
NCI-H226 = test: Growth inhibition of human NCI-H226 cells assessed as cell growth at 100 uM incubated for 48 hrs by sulforhodamine B assay relative to control; type: functional; settings: NCI-H226, 48 h, read-out: Activity
SF-539 = test: Growth inhibition of human SF539 cells assessed as cell growth at 0.1 uM incubated for 48 hrs by sulforhodamine B assay relative to control; type: functional; settings: SF-539, 48 h, read-out: Activity
BT-549 = test: Growth inhibition of human BT549 cells assessed as cell growth at 100 uM incubated for 48 hrs by sulforhodamine B assay relative to control; type: functional; settings: BT-549, 48 h, read-out: Activity
SN12C = test: Growth inhibition of human SN12C cells assessed as cell growth at 0.01 uM incubated for 48 hrs by sulforhodamine B assay relative to control; type: functional; settings: read-out: Activity
UO-31 = test: Growth inhibition of human UO31 cells incubated for 48 hrs by sulforhodamine B assay; type: functional, cell-based; settings: UO-31, 48 h
SNB-75 = test: Growth inhibition of human SNB75 cells assessed as cell growth at 1 uM incubated for 48 hrs by sulforhodamine B assay relative to control; type: functional; settings: SNB-75, 48 h, read-out: Activity
UACC-257 = test: Growth inhibition of human UACC257 cells incubated for 48 hrs by sulforhodamine B assay; type: functional, cell-based; settings: UACC-257, 48 h
HCT-116 = test: Growth inhibition of human HCT116 cells assessed as cell growth at 0.1 uM incubated for 48 hrs by sulforhodamine B assay relative to control; type: functional; settings: HCT-116, 48 h, read-out: Activity
NCI/ADR-RES = test: Growth inhibition of human NCI/ADR-RES cells assessed as cell growth at 0.1 uM incubated for 48 hrs by sulforhodamine B assay relative to control; type: functional; settings: read-out: Activity
T47D = test: Growth inhibition of human T47D cells assessed as cell growth at 0.1 uM incubated for 48 hrs by sulforhodamine B assay relative to control; type: functional; settings: read-out: Activity
SNB-19 [2] = test: Growth inhibition of human SNB19 cells assessed as cell growth at 0.1 uM incubated for 48 hrs by sulforhodamine B assay relative to control; type: functional; settings: SNB-19, 48 h, read-out: Activity
RXF 393 [3] = test: Growth inhibition of human RXF393 cells assessed as cell growth at 0.1 uM incubated for 48 hrs by sulforhodamine B assay relative to control; type: functional; settings: RXF 393, 48 h, read-out: Activity
SF-268 = test: Growth inhibition of human SF268 cells assessed as cell growth at 100 uM incubated for 48 hrs by sulforhodamine B assay relative to control; type: functional; settings: SF-268, 48 h, read-out: Activity
NCI-H522 = test: Growth inhibition of human NCI-H522 cells assessed as cell growth at 0.1 uM incubated for 48 hrs by sulforhodamine B assay relative to control; type: functional; settings: NCI-H522, 48 h, read-out: Activity
SK-OV-3 = test: Growth inhibition of human SKOV3 cells assessed as cell growth at 0.1 uM incubated for 48 hrs by sulforhodamine B assay relative to control; type: functional; settings: SK-OV-3, 48 h, read-out: Activity
CCRF-CEM = test: Growth inhibition of human CCRF-CEM cells assessed as cell growth at 100 uM incubated for 48 hrs by sulforhodamine B assay relative to control; type: functional; settings: read-out: Activity
SNB-19 [4] = test: Growth inhibition of human SNB19 cells incubated for 48 hrs by sulforhodamine B assay; type: functional, cell-based; settings: SNB-19, 48 h
UACC-62 = test: Growth inhibition of human UACC62 cells assessed as cell growth at 0.01 uM incubated for 48 hrs by sulforhodamine B assay relative to control; type: functional; settings: UACC-62, 48 h, read-out: Activity
A549 = test: Growth inhibition of human A549/ATCC cells assessed as cell growth at 100 uM incubated for 48 hrs by sulforhodamine B assay relative to control; type: functional; settings: A549, 48 h, read-out: Activity
KM12 = test: Growth inhibition of human KM12 cells assessed as cell growth at 0.1 uM incubated for 48 hrs by sulforhodamine B assay relative to control; type: functional; settings: KM12, 48 h, read-out: Activity
[5] = read-out: LC50 (the source's name)
[6] = read-out: pLC50 (the source's name) (converted)

COc1cc(Cl)cc(-c2nn(-c3cccc(NC(=O)c4cccc(C(F)(F)F)c4)c3)cc2-c2ccncc2)c1
LC50 (RXF 393 [1]): > 100 µM | GI50 (RXF 393 [1]; read-out: GI50): 1.57 µM | TGI (RXF 393 [1]; read-out: TGI): > 100 µM | GI50 (RXF 393 [1]; read-out: pGI50 (converted)): 1.86 µM | TGI (RXF 393 [1]; read-out: pTGI (converted)): > 100 µM | growth at 100 µM (ACHN): 40% | GI50 (HCC 2998; read-out: GI50): 5.56 µM | CC50 (HCC 2998; [5]): > 100 µM | TGI (HCC 2998; read-out: TGI): > 100 µM | GI50 (HCC 2998; read-out: pGI50 (converted)): 6.61 µM | CC50 (HCC 2998; [6]): > 100 µM | TGI (HCC 2998; read-out: pTGI (converted)): > 100 µM | growth at 0.1 µM (NCI-H322M): 95% | GI50 (HL-60(TB); read-out: GI50): 4.5 µM | LC50 (HL-60(TB); read-out: LC50): > 100 µM | TGI (HL-60(TB); read-out: TGI): > 100 µM | GI50 (HL-60(TB); read-out: pGI50 (converted)): 45.7 µM | LC50 (HL-60(TB); read-out: pLC50 (converted)): > 100 µM | TGI (HL-60(TB); read-out: pTGI (converted)): > 100 µM | growth at 0.1 µM (RPMI-8226): 97% | growth at 1 µM (Hs-578T): 52% | growth at 100 µM (U-251): 41% | growth at 0.1 µM (SK-MEL-2): 95% | growth at 100 µM (NCI-H226): 50% | growth at 0.1 µM (SF-539): 100% | growth at 100 µM (BT-549): 54% | growth at 0.01 µM (SN12C): 99% | IC50 (UO-31): 2.71 µM | GI50 (UO-31; read-out: GI50): 2.71 µM | CC50 (UO-31; [5]): > 100 µM | TGI (UO-31; read-out: TGI): > 100 µM | GI50 (UO-31; read-out: pGI50 (converted)): 2.69 µM | CC50 (UO-31; [6]): > 100 µM | TGI (UO-31; read-out: pTGI (converted)): > 100 µM | growth at 1 µM (SNB-75): 70% | GI50 (UACC-257; read-out: GI50): > 100 µM | CC50 (UACC-257; [5]): > 100 µM | TGI (UACC-257; read-out: TGI): > 100 µM | GI50 (UACC-257; read-out: pGI50 (converted)): > 100 µM | CC50 (UACC-257; [6]): > 100 µM | TGI (UACC-257; read-out: pTGI (converted)): > 100 µM | growth at 0.1 µM (HCT-116): 94% | growth at 0.1 µM (NCI/ADR-RES): 104% | growth at 0.1 µM (T47D): 101% | growth at 0.1 µM (SNB-19 [2]): 97% | growth at 0.1 µM (RXF 393 [3]): 65% | growth at 100 µM (SF-268): 58% | growth at 0.1 µM (NCI-H522): 83% | growth at 0.1 µM (SK-OV-3): 105% | growth at 100 µM (CCRF-CEM): 32% | GI50 (SNB-19 [4]; read-out: GI50): > 100 µM | CC50 (SNB-19 [4]; [5]): > 100 µM | TGI (SNB-19 [4]; read-out: TGI): > 100 µM | GI50 (SNB-19 [4]; read-out: pGI50 (converted)): > 100 µM | CC50 (SNB-19 [4]; [6]): > 100 µM | TGI (SNB-19 [4]; read-out: pTGI (converted)): > 100 µM | growth at 0.01 µM (UACC-62): 98% | growth at 100 µM (A549): 30% | growth at 0.1 µM (KM12): 111%
